Measurements from EP0694535A1, “Non-peptidyl tachykinin receptor antagonists” (ELI LILLY AND COMPANY, priority 1994, dated 1996).
Counter-ions that a name gives are not always drawn.

Each compound was assayed against T1, NK-1 receptor (Homo sapiens, UniProt P25103) (assay: NK-1 Receptor Binding Assay (competition with labeled substance P on IM9 cells)). Settings: @ 20μM, inhibition of substance P binding to the NK-1 receptor, read-out: Percent Inhibition.
T1 construct: an aliquot of IM9 cells; endogenous in cells; host or cells: IM9 cells (whole cells)
T1 sequence (P25103 whole entry): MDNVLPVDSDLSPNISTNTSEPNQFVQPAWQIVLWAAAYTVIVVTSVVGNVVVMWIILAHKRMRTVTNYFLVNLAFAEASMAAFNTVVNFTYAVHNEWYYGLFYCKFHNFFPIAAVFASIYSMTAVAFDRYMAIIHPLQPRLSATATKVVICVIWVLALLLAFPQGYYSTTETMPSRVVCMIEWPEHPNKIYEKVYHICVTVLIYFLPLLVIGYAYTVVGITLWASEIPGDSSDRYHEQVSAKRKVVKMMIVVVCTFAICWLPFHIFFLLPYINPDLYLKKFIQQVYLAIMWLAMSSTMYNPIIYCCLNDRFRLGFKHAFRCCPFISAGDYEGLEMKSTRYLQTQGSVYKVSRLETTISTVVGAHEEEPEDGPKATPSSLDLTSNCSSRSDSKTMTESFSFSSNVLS
Method: Radioreceptor binding assays were performed using a derivative of a previously published protocol. D.G. Payan, et al., Journal of Immunology, 133:3260-3265 (1984). In this assay an aliquot of IM9 cells (1 x 10⁶ cells/tube in […] medium supplemented with 10% fetal calf serum) was incubated with 20 pM […] substance P in the presence of increasing competitor concentrations for 45 minutes at 4°C.
The IM9 cell line is a well-characterized cell line which is readily available to the public. See. e.g., Annals of the New York Academy of Science, 190: 221-234 (1972); Nature (London), 251:443-444 (1974); Proceedings of the National Academy of Sciences (USA), 71:84-88 (1974). These cells were routinely cultured in RPMI 1640 supplemented with 50 µg/ml gentamicin sulfate and 10% fetal calf serum.
The reaction was terminated by filtration through a glass fiber filter harvesting system using filters previously soaked for 20 minutes in 0.1% polyethylenimine. Specific binding of labeled substance P was determined in the presence of 20 nM unlabeled ligand.
Column 1 provides the example number of the test antagonist compound. The next columns detail the substitution patterns of the test compound.

inhibition at 20 µM [%] | Structure (SMILES)
16 | c1ccc(-c2nc3ccccc3n2CCN2CCCCC2)cc1 [Example 28, 1-(piperidin-1-ylethyl)-2-phenylbenzimidazole dihydrochloride]
25 | c1ccc(-c2nc3ccccc3n2-c2ccccc2)cc1 [Example 1, 1,2-diphenylbenzimidazole]
30 | c1ccc(Cc2nc3ccccc3n2-c2ccccc2)cc1 [Example 3, 1-phenyl-2-phenylmethylbenzimidazole]
51 | CCCCCc1nc2ccccc2n1-c1ccccc1 [Example 35, 1-phenyl-2-pentylbenzimidazole hydrochloride]
38 | COc1ccc(-c2nc3ccccc3n2-c2ccccc2)cc1 [Example 2, 1-phenyl-2-(4-methoxyphenyl)benzimidazole]
19 | Clc1ccc(-c2nc3ccccc3n2-c2ccc(Cl)cc2)cc1 [Example 11, 1-(4-chlorophenyl)-2-(4-chlorophenyl)-benzimidazole]
38 | Clc1ccc(-c2nc3ccccc3n2-c2ccccc2)cc1 [Example 5, 1-phenyl-2-(4-chlorophenyl)benzimidazole]
65 | Clc1ccccc1-c1nc2ccccc2n1-c1ccccc1 [Example 22, 1-phenyl-2-(2-chlorophenyl)benzimidazole]
37 | Cc1ccc(-c2nc3ccccc3n2-c2ccccc2)cc1 [Example 18, 1-phenyl-2-(4-methylphenyl)benzimidazole]
26 | c1ccc(-n2c(C3CCCCC3)nc3ccccc32)cc1 [Example 21, 1-phenyl-2-cyclohexylbenzimidazole]
51 | Cc1ccccc1-c1nc2ccccc2n1-c1ccccc1 [Example 23, 1-phenyl-2-(2-methylphenyl)benzimidazole]
17 | COc1ccc(-c2nc3ccccc3n2-c2ccc(Cl)cc2)cc1 [Example 17, 1-(4-chlorophenyl)-2-(4-methoxyphenyl)benzimidazole]
11 | Clc1ccc(-n2c(-c3ccccc3)nc3ccccc32)cc1 [Example 8, 1-(4-chlorophenyl)-2-phenylbenzimidazole]
15 | FC(F)(F)c1cccc(-c2nc3ccccc3n2-c2ccccc2)c1 [Example 9, 1-phenyl-2-(3-trifluoromethylphenyl)-benzimidazole]
79 | O=[N+]([O-])c1cc(-c2nc3ccccc3n2-c2ccccc2)ccc1Cl [Example 30, 1-phenyl-2-(3-nitro-4-chlorophenyl)-benzimidazole]
43 | FC(F)(F)c1ccccc1-c1nc2ccccc2n1-c1ccccc1 [Example 36, 1-phenyl-2-(2-trifluoromethylphenyl)-benzimidazole]
67 | Oc1ccc(-c2nc3ccccc3n2-c2ccccc2)cc1 [Example 29, 1-phenyl-2-(4-hydroxyphenyl)benzimidazole]

Structure (SMILES) | inhibition at 20 µM [%]
CN(C)CCn1c(-c2ccccc2)nc2ccccc21 [Example 26, 1-dimethylaminoethyl-2-phenylbenzimidazole dihydrochloride] | 0

Same assay, conditions: at 10μM, inhibition of substance P binding to the NK-1 receptor, read-out: Percent Inhibition

inhibition at 10 µM [%] | Structure (SMILES)
36 | Cc1cccc(-c2nc3ccccc3n2Cc2ccc(Cl)cc2Cl)c1 [Example 63, 1-(2,4-Dichlorobenzyl)-2-(3-methylphenyl)benzimidazole]
60 | Cc1cccc(-c2nc3ccccc3n2Cc2cccc(O)c2)c1 [Example 67, 1-(3-hydroxybenzyl)-2-(3-methylphenyl)benzimidazole hydrobromide]
58 | COc1cccc(Cn2c(-c3cccc(C)c3)nc3ccccc32)c1 [Example 65, 1-(3-Methoxybenzyl)-2-(3-methylphenyl)benzimidazole]
34 | COc1ccc(Cn2c(-c3cccc(C)c3)nc3ccccc32)cc1 [Example 66, 1-(4-Methoxybenzyl)-2-(3-methylphenyl)benzimidazole]

Same assay, conditions: concentration which inhibits fifty percent of the binding of substance P, 20 pM labeled substance P, 45 minutes at 4°C

Structure (SMILES) | IC50 [µM]
c1ccc(-n2c(-c3ccc4ccccc4c3)nc3ccccc32)cc1 [Example 13, 1-phenyl-2-(2-naphthyl)benzimidazole] | 6.91
O=[N+]([O-])c1ccc(-c2nc3ccccc3n2-c2ccccc2)cc1 [Example 7, 1-phenyl-2-(4-nitrophenyl)benzimidazole] | 9.12
c1ccc(-n2c(-c3cccs3)nc3ccccc32)cc1 [Example 33, 1-phenyl-2-(thien-2-yl)benzimidazole] | 3.98
Oc1cccc(-c2nc3ccccc3n2-c2ccccc2)c1 [Example 34, 1-phenyl-2-(3-hydroxyphenyl)benzimidazole] | 12
CCCc1nc2ccccc2n1-c1ccccc1 [Example 32, 1-phenyl-2-propylbenzimidazole] | 10
O=[N+]([O-])c1cccc(-c2nc3ccccc3n2-c2ccccc2)c1 [Example 10, 1-phenyl-2-(3-nitrophenyl)benzimidazole] | 5
Clc1cccc(-c2nc3ccccc3n2-c2ccccc2)c1 [Example 4, 1-phenyl-2-(3-chlorophenyl)benzimidazole] | 7
Clc1ccc(-c2nc3ccccc3n2-c2ccccc2)cc1Cl [Example 27, 1-phenyl-2-(3,4-dichlorophenyl)benzimidazole] | 6.61
COc1ccccc1-c1nc2ccccc2n1-c1ccccc1 [Example 24, 1-phenyl-2-(2-methoxyphenyl)benzimidazole] | 8.67
N#Cc1cccc(-c2nc3ccccc3n2-c2ccccc2)c1 [Example 25, 1-phenyl-2-(3-cyanophenyl)benzimidazole] | 3.27
Cc1cccc(-c2nc3ccccc3n2-c2ccccc2)c1 [Example 19, 1-phenyl-2-(3-methylphenyl)benzimidazole] | 1.1
COc1cccc(-c2nc3ccccc3n2-c2ccccc2)c1 [Example 6, 1-phenyl-2-(3-methoxyphenyl)benzimidazole] | 3.29
FC(F)(F)c1ccc(-c2nc3ccccc3n2-c2ccccc2)cc1 [Example 12, 1-phenyl-2(4-trifluoromethylphenyl)-benzimidazole] | 6.72
N#Cc1ccc(-c2nc3ccccc3n2-c2ccccc2)cc1 [Example 20, 1-phenyl-2-(4-cyanophenyl)benzimidazole] | 3.47

The next lines start with the values.

IC50 [µM] | Structure (SMILES)
1.13 | COc1cc(-c2nc3ccc(O)cc3n2Cc2ccccc2)cc(OC)c1OC [Example 69, 1-benzyl-2-(3,4,5-trimethoxyphenyl)-6-(hydroxy)-benzimidazole hydrochloride]
0.151 | COc1cc(-c2nc3ccc(OC(C)CN(C)C)cc3n2Cc2ccccc2)cc(OC)c1OC (centres unmarked) [Example 78]
0.123 | COc1cc(-c2nc3ccc(OCCCN(C)C)cc3n2Cc2ccccc2)cc(OC)c1OC [Example 80, 1-benzyl-2-(3,4,5-trimethoxyphenyl)-6-[3-(N,N-dimethylamino)propoxy]benzimidazole]
1.54 | COc1cc(OC)cc(-c2nc3ccccc3n2-c2ccccc2)c1 [Example 14, 1-phenyl-2-(3,5-dimethoxyphenyl)benzimidazole]
0.098 | COc1cc(-c2nc3ccc(OCCN4CCN(C)CC4)cc3n2Cc2ccccc2)cc(OC)c1OC [Example 83, 1-benzyl-2-(3,4,5-trimethoxyphenyl)-6-[2-(4-methyl-1-piperazinyl)ethoxy]benzimidazole]
0.097 | COc1cc(-c2nc3ccc(OCCN(C)C)cc3n2Cc2ccccc2)cc(OC)c1OC [Example 79, 1-benzyl-2-(3,4,5-trimethoxyphenyl)-6-[2-(N,N-dimethylamino)ethoxy]benzimidazole]
0.04 | COc1cc(-c2nc3ccc(OCCN(C(C)C)C(C)C)cc3n2Cc2ccccc2)cc(OC)c1OC [Example 81, 1-benzyl-2-(3,4,5-trimethoxyphenyl)-6-[2-(N,N-diisopropylamino)ethoxy]benzimidazole]
0.64 | COc1cc(-c2nc3ccccc3n2-c2ccccc2)cc(OC)c1OC [Example 16, 1-phenyl-2-(3,4,5-trimethoxyphenyl)-benzimidazole]
2.98 | COc1ccc(-c2nc3ccccc3n2-c2ccccc2)cc1OC [Example 15, 1-phenyl-2-(3,4-dimethoxyphenyl)benzimidazole]
1.05 | COc1ccc2c(c1)nc(-c1cc(OC)c(OC)c(OC)c1)n2Cc1ccccc1 [Example 38, 1-phenylmethyl-2-(3,4,5-trimethoxyphenyl)-5-methoxybenzimidazole]
0.427 | COc1ccc2nc(-c3cc(OC)c(OC)c(OC)c3)n(Cc3ccccc3)c2c1 [Example 39, 1-phenylmethyl-2-(3,4,5-trimethoxyphenyl)-6-methoxybenzimidazole]
